# Like-named read-outs stand apart in the source and are kept apart here.
# Experiments:
# [1] = Plasma pharmacokinetics of baxdrostat and CIN-107-M, multiple ascending dose phase 1 study; type: in vivo, human; settings: for RAUC (accumulation ratio based on AUC) / RCmax (accumulation ratio based on Cmax): day 10 vs day 1, mean ± SD; for Cmax / Tmax / Vd/F / half-life: human, plasma, po; for Vd/F: read-out: Vss/F
# Protocol: Subjects were randomized in a 3:1 ratio to baxdrostat or placebo once daily for 10 days as follows: • Cohort 1: 2.5 mg baxdrostat or matching placebo on a low-salt diet, 9 subjects receiving baxdrostat and 3 subjects receiving placebo • Cohort 2: 5.0 mg baxdrostat or matching placebo on a low-salt diet, 9 subjects receiving baxdrostat and 3 subjects receiving placebo • Cohort 3: 1.5 mg baxdrostat or matching placebo on a normal-salt diet, 9 subjects receiving baxdrostat and 3 subjects receiving placebo • Cohort 4: 2.5 mg baxdrostat or matching placebo on a normal-salt diet, 6 subjects receiving baxdrostat and 2 subjects receiving placebo • Cohort 5: 0.5 mg baxdrostat or matching placebo on a normal-salt diet, 9 subjects receiving baxdrostat and 3 subjects receiving placebo.
# The study drug was a 2 mg/mL baxdrostat oral solution and matching oral placebo solution. Subjects received a single dose of oral solution of baxdrostat or placebo on the mornings of days 1 through 10 at 8:00 a.m. (± 2 h). On days 1 and 10, the dose was given following an overnight fast (of at least 8 h), and subjects remained fasted for at least 4 h after dosing on these days. On all other days, subjects fasted for a minimum of 2 h before and 2 h after dosing.
# (§1) Plasma and urine samples were analyzed to measure concentrations of baxdrostat and its primary metabolite (CIN-107-M), aldosterone and its precursors, cortisol and its precursor, and ACTH using a validated liquid chromatography tandem mass spectrometry method (LC-MS/MS). The quantifiable ranges for both baxdrostat and its metabolite CIN-107-M in plasma and urine were 0.05 to 50 ng/mL (low range) and 5 to 2500 ng/mL (high range), using baxdrostat-d5 and CIN-107-M-d3, respectively, as the internal standards. Plasma samples were extracted by protein precipitation with methanol, followed by analysis by LC-MS/MS with electrospray ionization in positive mode and multiple reaction monitoring. All scheduled study-related laboratory tests were performed by Medpace Reference Laboratories (Cincinnati, OH, USA), Medpace Bioanalytical Laboratories (Cincinnati, OH, USA), Mercy Health—West Hospital Laboratory (Cincinnati, OH, USA), or Laboratory Corporation of America (Dublin, OH, USA).
# Blood samples were collected prior to and after dosing on days 1 and 10 for measurement of plasma baxdrostat and CIN-107-M concentrations to characterize single-dose and steady-state PK. Pharmacokinetic parameters were calculated by standard noncompartmental methods using Phoenix WinNonlin™ (Certara, Inc., Princeton, NJ) and verified with SAS (SAS Institute, Inc., Cary, NC) software. […] Steady-state plasma PK parameters consisted of accumulation ratio based on Cmax (RCmax), accumulation ratio based on AUC (RAUC), apparent first-order terminal elimination rate constant (λz), terminal phase elimination half-life (t1/2), apparent plasma clearance (CLss/F), and apparent volume of distribution (Vss/F).
# [2] = Urine pharmacokinetics (fraction of dose excreted renally); type: in vivo, human
# Protocol: as §1
# The cumulative amount of drug excreted in urine on day 1 (Ae,D1) and day 10 (Ae,D10), fraction of dose excreted renally on day 1 (Fe,D1) and day 10 (Fe,D10), and renal clearance on day 1 (CLR,D1) and day 10 (CLR,D10) composed single-dose urine PK parameters.
# [3] = 0.5 mg oral once daily, normal-salt diet, day 10, mean ± SD
# [4] = 0.5 mg oral once daily, normal-salt diet
# [5] = 1.5 mg oral once daily, normal-salt diet, day 10, mean ± SD
# [6] = 1.5 mg oral once daily, normal-salt diet
# [7] = 2.5 mg oral once daily, low-salt diet, day 10, mean ± SD
# [8] = 2.5 mg oral once daily, low-salt diet
# [9] = 2.5 mg oral once daily, normal-salt diet, day 10, mean ± SD, n=5
# [10] = 2.5 mg oral once daily, normal-salt diet, n=5
# [11] = 5.0 mg oral once daily, low-salt diet, day 10, mean ± SD
# [12] = 5.0 mg oral once daily, low-salt diet
smiles,measurement,setting,value
CCC(=O)N[C@@H]1CCCc2c(-c3ccc4c(c3)CCC(=O)N4C)cncc21 [baxdrostat],AUC0-24hr,"[1]; 0.5 mg oral once daily, normal-salt diet, day 1, mean ± SD",79.47 ± 17.34 h‧ng/mL
same,AUC0-tau,[1]; [3],155.19 ± 35.70 h‧ng/mL
same,CLss/F,[1]; [3],3.42 ± 1.01 L/h
same,RAUC (accumulation ratio based on AUC),[1]; [4],1.96 ± 0.27
same,RCmax (accumulation ratio based on Cmax),[1]; [4],1.83 ± 0.26
same,AUC0-24hr,"[1]; 1.5 mg oral once daily, normal-salt diet, day 1, mean ± SD",205.31 ± 36.74 h‧ng/mL
same,AUC0-tau,[1]; [5],479.67 ± 138.21 h‧ng/mL
same,CLss/F,[1]; [5],3.35 ± 0.92 L/h
same,RAUC (accumulation ratio based on AUC),[1]; [6],2.31 ± 0.32
same,RCmax (accumulation ratio based on Cmax),[1]; [6],2.13 ± 0.24
same,AUC0-24hr,"[1]; 2.5 mg oral once daily, low-salt diet, day 1, mean ± SD",365.79 ± 65.51 h‧ng/mL
same,AUC0-tau,[1]; [7],782.99 ± 143.02 h‧ng/mL
same,CLss/F,[1]; [7],3.28 ± 0.53 L/h
same,RAUC (accumulation ratio based on AUC),[1]; [8],2.15 ± 0.16
same,RCmax (accumulation ratio based on Cmax),[1]; [8],1.97 ± 0.30
same,AUC0-24hr,"[1]; 2.5 mg oral once daily, normal-salt diet, day 1, mean ± SD",343.98 ± 92.44 h‧ng/mL
same,AUC0-tau,[1]; [9],676.51 ± 343.78 h‧ng/mL
same,CLss/F,[1]; [9],4.32 ± 1.59 L/h
same,RAUC (accumulation ratio based on AUC),[1]; [10],1.99 ± 0.45
same,RCmax (accumulation ratio based on Cmax),[1]; [10],1.71 ± 0.58
same,AUC0-24hr,"[1]; 5.0 mg oral once daily, low-salt diet, day 1, mean ± SD",657.85 ± 137.40 h‧ng/mL
same,AUC0-tau,[1]; [11],1659.41 ± 440.51 h‧ng/mL
same,CLss/F,[1]; [11],3.21 ± 0.84 L/h
same,RAUC (accumulation ratio based on AUC),[1]; [12],2.51 ± 0.26
same,RCmax (accumulation ratio based on Cmax),[1]; [12],2.42 ± 0.33
same,"dose proportionality of Cmax and AUC (power model, Hummel criteria)","[1]; day 1 (Cmax, AUC0-24 h) and day 10 (Cmax, AUC0-tau, AUC0-t)",proportional increase
same,Cmax,"[1]; 0.5 mg, 0.5 mg oral once daily, normal-salt diet, day 1, mean ± SD, n=9, read-out: Cmax,D1",5.36 ± 1.25 ng/mL
same,Tmax,"[1]; 0.5 mg, 0.5 mg oral once daily, normal-salt diet, day 1, read-out: Tmax,D1, median (min, max)",2 h
same,Cmax,"[1]; 0.5 mg, 0.5 mg oral once daily, normal-salt diet, day 10, mean ± SD, read-out: Cmax,D10",9.72 ± 2.27 ng/mL
same,Vd/F,"[1]; 0.5 mg, 0.5 mg oral once daily, normal-salt diet, day 10, mean ± SD",152 ± 44.5 L
same,half-life,"[1]; 0.5 mg, 0.5 mg oral once daily, normal-salt diet, day 10, mean ± SD, read-out: t1/2 (converted)",31.2 ± 5.8 h
same,Tmax,"[1]; 0.5 mg, 0.5 mg oral once daily, normal-salt diet, day 10, read-out: Tmax,D10, median (min, max)",2 h
same,Cmax,"[1]; 1.5 mg, 1.5 mg oral once daily, normal-salt diet, day 1, mean ± SD, n=9, read-out: Cmax,D1",14 ± 2.24 ng/mL
same,Tmax,"[1]; 1.5 mg, 1.5 mg oral once daily, normal-salt diet, day 1, read-out: Tmax,D1, median (min, max)",2.5 h
same,Cmax,"[1]; 1.5 mg, 1.5 mg oral once daily, normal-salt diet, day 10, mean ± SD, read-out: Cmax,D10",29.9 ± 6.1 ng/mL
same,Vd/F,"[1]; 1.5 mg, 1.5 mg oral once daily, normal-salt diet, day 10, mean ± SD",137 ± 15.8 L
same,half-life,"[1]; 1.5 mg, 1.5 mg oral once daily, normal-salt diet, day 10, mean ± SD, read-out: t1/2 (converted)",29.9 ± 7.71 h
same,Tmax,"[1]; 1.5 mg, 1.5 mg oral once daily, normal-salt diet, day 10, read-out: Tmax,D10, median (min, max)",2.5 h
same,Cmax,"[1]; 2.5 mg, 2.5 mg oral once daily, low-salt diet, day 1, mean ± SD, n=9, read-out: Cmax,D1",28.1 ± 5.9 ng/mL
same,Tmax,"[1]; 2.5 mg, 2.5 mg oral once daily, low-salt diet, day 1, read-out: Tmax,D1, median (min, max)",3 h
same,Cmax,"[1]; 2.5 mg, 2.5 mg oral once daily, low-salt diet, day 10, mean ± SD, read-out: Cmax,D10",54 ± 7.56 ng/mL
same,Vd/F,"[1]; 2.5 mg, 2.5 mg oral once daily, low-salt diet, day 10, mean ± SD",135 ± 36.7 L
same,half-life,"[1]; 2.5 mg, 2.5 mg oral once daily, low-salt diet, day 10, mean ± SD, read-out: t1/2 (converted)",28.4 ± 4.75 h
same,Tmax,"[1]; 2.5 mg, 2.5 mg oral once daily, low-salt diet, day 10, read-out: Tmax,D10, median (min, max)",2 h
same,Cmax,"[1]; 2.5 mg, 2.5 mg oral once daily, normal-salt diet, day 1, mean ± SD, n=6, read-out: Cmax,D1",26.2 ± 4.76 ng/mL
same,Tmax,"[1]; 2.5 mg, 2.5 mg oral once daily, normal-salt diet, day 1, read-out: Tmax,D1, median (min, max)",3 h
same,Cmax,"[1]; 2.5 mg, 2.5 mg oral once daily, normal-salt diet, day 10, mean ± SD, n=5, read-out: Cmax,D10",43.9 ± 18.7 ng/mL
same,Vd/F,"[1]; 2.5 mg, 2.5 mg oral once daily, normal-salt diet, day 10, mean ± SD, n=5",150 ± 42.4 L
same,half-life,"[1]; 2.5 mg, 2.5 mg oral once daily, normal-salt diet, day 10, mean ± SD, n=5, read-out: t1/2 (converted)",25.6 ± 5.95 h
same,Tmax,"[1]; 2.5 mg, 2.5 mg oral once daily, normal-salt diet, day 10, n=5, read-out: Tmax,D10, median (min, max)",3 h
same,Cmax,"[1]; 5 mg, 5.0 mg oral once daily, low-salt diet, day 1, mean ± SD, n=9, read-out: Cmax,D1",47.3 ± 12.3 ng/mL
same,Tmax,"[1]; 5 mg, 5.0 mg oral once daily, low-salt diet, day 1, read-out: Tmax,D1, median (min, max)",3.02 h
same,Cmax,"[1]; 5 mg, 5.0 mg oral once daily, low-salt diet, day 10, mean ± SD, read-out: Cmax,D10",113 ± 25.9 ng/mL
same,Vd/F,"[1]; 5 mg, 5.0 mg oral once daily, low-salt diet, day 10, mean ± SD",134 ± 42 L
same,half-life,"[1]; 5 mg, 5.0 mg oral once daily, low-salt diet, day 10, mean ± SD, read-out: t1/2 (converted)",29.4 ± 6.47 h
same,Tmax,"[1]; 5 mg, 5.0 mg oral once daily, low-salt diet, day 10, read-out: Tmax,D10, median (min, max)",3 h
same,Tmax,"[1]; across doses 0.5-5.0 mg oral once daily, read-out: median Tmax (time to peak plasma concentration after dosing)",≤ 4 h
same,half-life,"[1]; range across doses 0.5-5.0 mg oral once daily for 10 days, read-out: mean t1/2",26 to 31 h
same,baxdrostat dose recovered unchanged in the urine,[2]; day 1,Approximately 7%
same,baxdrostat dose recovered unchanged in the urine,[2]; steady state (day 10),~ 32%

# Reference: article PMC9747611 (Hypertension Research, 2022)
